One experiment has as its system p300/CBP. As to conditions: literature (Shirakawa et al., 2016); cited from earlier work.
A further experiment relates to C57BL/6J mice. The experiment is described as follows: Foot slip test of motor function after TBI. The format is in vivo, mouse. The following applies: low-dose salsalate daily IP from 24 h after TBI, vs. TBI+Vehicle. The method, then:
Drug preparation and administration: CGP3466B (Sigma-Aldrich, SML1941) was dissolved in DMSO and then diluted in sterile saline. The final working stock was 0.0014 mg/ml for administering the 0.014 mg/kg dose. Intraperitoneal administration of CGP3466B was initiated 15 min or 24 h after injury, and tissues were harvested 6 h (for SNO-GAPDH, SNO-SIRT1 measurement) or 2 weeks (for ac-tau measurement) later, respectively. Salsalate (AdipoGen, AG-CR1-3574) was dissolved in DMSO and then diluted in sterile PBS. The final working stocks were as follows: 2.5 mg/ml (25 mg/kg dose), 1 mg/ml (10 mg/kg dose), 0.5 mg/ml (5 mg/kg dose). Daily intraperitoneal administration of salsalate was initiated 24 hr after injury and continued throughout behavioral testing. P7C3-A20 and FK866 (Sigma-Aldrich, F8557) were first dissolved in 1 vol of DMSO, followed by addition of 4 vol of Kolliphor and vigorously vortexing. The solution was then diluted with 30 vol of filtered 5% dextrose (pH 7.0). EX527 (Selleckchem, S1541) was dissolved in 1% DMSO+30% polyethylene glycol+1% Tween 80. Daily intraperitoneal administration of P7C3-A20 was initiated 24 hr after poly-traumatic brain injury. […]
Foot slip test of motor function: Mice were trained to cross an 80 cm-long beam over two days and then tested on day 16. Video of the mice was recorded and analyzed by observers blind to treatment group.

As to `O=C(Oc1ccccc1C(=O)O)c1ccccc1O` [salsalate], in the experiment with p300/CBP, the “inhibition of p300/CBP” value was “known inhibitor of rodent and human p300/CBP”. The “post-TBI motor impairment (foot slip assay)” value with C57BL/6J mice was “protects mice from post-TBI impairments”.

The record behind these values is patent US20240201204A1, “Biomarker and Druggable Target of Neurodegeneration” (University Hospitals Cleveland Medical Center, priority 2020, published 2024).
